Reference: US20110002944A1, “Compositions and Methods to Promote Neural Cell Growth” (The Johns Hopkins University, priority 2006, published 2011)

Tests used:
[1] = system: axonal growth cones of rat P5 hippocampal neurons; experiment: Growth cone turning assay in an OMgp gradient, P5 hippocampal neurons; assay type: cell-based; settings: for growth cone turning response to a gradient of the protein: 5 μg/ml in the pipette
From the text: Three major myelin-associated inhibitory factors, Nogo-66, MAG and OMgp, are known to bind the common NgR protein, and may utilize the same signal transduction pathway to inhibit axonal extension (Domeniconi et al., 2002; Fournier et al., 2001; Liu et al., 2002; Wang et al., 2002b). Therefore, whether β1-integrin also mediates growth cone responses to other myelin-associated inhibitors was next considered. […] Thus, β1-integrin appears to specifically mediate acute axonal growth cone turning induced by MAG, but not by OMgp.
(§1) Hippocampal neurons were isolated from embryonic and postnatal rats, or wild-type and NgR knockout mice (Zheng et al., 2005) as previously described (Song et al., 2002a; Song et al., 2002b). Similarly, cerebellar neurons were isolated from P5 rat cerebellum (Xiang et al., 2002). They were cultured on poly-L-lysine coated plates or coverslips as previously described (Song et al., 2002a; Song et al., 2002b). For biochemical analysis, embryonic day 18 (E18) neurons were treated with the agent AraC to eliminate dividing astrocytes and used at 5 days after plating as previously described (Song et al., 2002a; Song et al., 2002b). For growth cone turning assay, neurons were used between 2-3 days after plating. PI-PLC (1 or 2 units/ml) (Wang et al., 2002b), Ha2/5 (1 μg/ml) or echistatin (100 nM) (Gan et al., 1988) were added for 30 mins prior to and were present during the biochemical analysis or the growth cone turning assay.
Microscopic gradients of recombinant MAG (150 μg/ml in the pipette) and OMgp (5 μg/ml in the pipette) were produced as previously described (Lohof et al., 1992; Song et al., 1998; Xiang et al., 2002). Axons were identified as the longest neurite in these cultures at the stage 2-3 of hippocampal neurons as previously described (Dotti et al., 1988). Growth cone assays were carried out at room temperature for 30 min. […] Statistical significance was assessed using ANOVA and accepted if p<0.01.

[2] = system: axonal growth cones of P5 rat hippocampal neurons; experiment: Growth cone turning assay in a MAG gradient, P5 hippocampal neurons; assay type: cell-based
Procedure: To examine the functional role of β1-integrin in transducing MAG signaling in neuronal growth cones, growth cone turning assays were performed using rat hippocampal neurons. Growth cone turning assays are well-known and described in the art, for example by Song et al., 1998; Xiang et al., 2002; see also Experimental Procedures.
as §1, with “PI-PLC (1 or 2 units/ml) (Wang et al., 2002b), Ha2/5 (1 μg/ml) or echistatin (100 nM) (Gan et al., 1988) were added for 30 mins prior to and were present during the biochemical analysis or the growth cone turning assay.” left out
Microscopic gradients of recombinant MAG (150 μg/ml in the pipette) and OMgp (5 μg/ml in the pipette) were produced as previously described (Lohof et al., 1992; Song et al., 1998; Xiang et al., 2002). […] Statistical significance was assessed using ANOVA and accepted if p<0.01. […]

[3] = system: FAK; experiment: MAG-induced FAK tyrosine phosphorylation in hippocampal neurons (IP anti-FAK, immunoblot); assay type: cell-based, rat; settings: echistatin 100 nM
Procedure: The question was next asked how β1-integrin signaling transduces MAG-induced neuronal responses. Focal adhesion kinase (FAK) is a major mediator of integrin-dependent signaling in many contexts, including cell migration and axon guidance (Nakamoto et al., 2004; Nikolopoulos and Gianotti, 2005; Xie and Tsai, 2004). […] MAG-induced FAK phosphorylation was abolished in the presence of echistatin (100 nM) or Ha2/5 ([…]) (FIG. 6B). […] The specific FAK tyrosine residues that become phosphorylated upon MAG stimulation in hippocampal neurons were next examined. […] Similar β1-integrin-dependent FAK phosphorylation of these tyrosine residues was also found in embryonic cortical neurons treated with MAG (data not shown).
as §1, with “For growth cone turning assay, neurons were used between 2-3 days after plating. PI-PLC (1 or 2 units/ml) (Wang et al., 2002b), Ha2/5 (1 μg/ml) or echistatin (100 nM) (Gan et al., 1988) were added for 30 mins prior to and were present during the biochemical analysis or the growth cone turning assay.” left out

[4] = molecular target: T1, β1-integrin (Rattus norvegicus, UniProt P49134); experiment: Co-immunoprecipitation of MAG-Fc and β1-integrin in primary hippocampal neurons; assay type: binding; settings: echistatin 100 nM; primary hippocampal cultures treated with MAG-Fc
T1 construct: endogenous in cells; host or cells: primary hippocampal neurons (E18, 5 days after plating)
T1 sequence (P49134 21-799): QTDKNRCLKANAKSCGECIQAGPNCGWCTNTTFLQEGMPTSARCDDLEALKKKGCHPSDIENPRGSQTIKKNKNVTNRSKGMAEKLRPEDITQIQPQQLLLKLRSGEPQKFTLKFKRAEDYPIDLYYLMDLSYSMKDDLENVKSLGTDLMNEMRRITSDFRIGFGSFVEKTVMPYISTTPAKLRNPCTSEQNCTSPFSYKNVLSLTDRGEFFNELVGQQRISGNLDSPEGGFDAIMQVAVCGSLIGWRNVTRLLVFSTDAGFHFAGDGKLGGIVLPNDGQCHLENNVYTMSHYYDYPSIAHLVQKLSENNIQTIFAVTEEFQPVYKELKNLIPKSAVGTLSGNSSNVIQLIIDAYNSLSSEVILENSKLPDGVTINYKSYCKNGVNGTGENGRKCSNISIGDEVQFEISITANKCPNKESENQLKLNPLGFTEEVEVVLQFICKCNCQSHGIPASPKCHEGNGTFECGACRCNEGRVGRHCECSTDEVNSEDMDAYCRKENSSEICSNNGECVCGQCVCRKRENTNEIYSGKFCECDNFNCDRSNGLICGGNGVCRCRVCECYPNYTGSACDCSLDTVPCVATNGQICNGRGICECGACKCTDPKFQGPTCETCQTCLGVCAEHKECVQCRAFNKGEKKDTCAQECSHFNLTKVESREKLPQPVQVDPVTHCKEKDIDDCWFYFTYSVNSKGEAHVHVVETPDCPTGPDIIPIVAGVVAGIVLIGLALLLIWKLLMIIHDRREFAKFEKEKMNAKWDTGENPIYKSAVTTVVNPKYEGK
Procedure: To determine whether β1-integrin interacts with myelin associated glycoprotein (MAG), cultured primary hippocampal neurons were treated with recombinant MAG consisting of the MAG extracellular domain fused to human Fc (MAG-Fc; see Experimental Procedures), a fusion protein previously shown to potently regulate neurite outgrowth and induce growth cone turning responses (Domeniconi et al., 2002; Henley et al., 2004; Liu et al., 2002; McKerracher et al., 1994; Shim et al., 2005; Song et al., 1998).
as §1, with “PI-PLC (1 or 2 units/ml) (Wang et al., 2002b), Ha2/5 (1 μg/ml) or echistatin (100 nM) (Gan et al., 1988) were added for 30 mins prior to and were present during the biochemical analysis or the growth cone turning assay.” left out

echistatin was tested, and the “effect on OMgp-induced growth cone repulsion” value ([1]; echistatin 100 nM, OMgp 5 μg/ml in the pipette) was “still exhibited significant repulsion”, the “effect on MAG-induced growth cone repulsion” value ([2]; 100 nM echistatin, MAG 150 μg/ml in the pipette) was “completely abolished” and the “effect on MAG-induced FAK phosphorylation” value [3] was “abolished”. For the same molecule, the “association between MAG and β1-integrin (co-immunoprecipitation)” value [4] was “attenuated”.

B1: OMgp: recombinant oligodendrocyte-myelin glycoprotein (protein, UniProt P23515 25-417, looked up)
Oligodendrocyte-myelin …: ICPLQCICTERHRHVDCSGRNLSTLPSGLQENIIHLNLSYNHFTDLHNQLTQYTNLRTLDISNNRLESLPAHLPRSLWNMSAANNNIKLLDKSDTAYQWNLKYLDVSKNMLEKVVLIKNTLRSLEVLNLSSNKLWTVPTNMPSKLHIVDLSNNSLTQILPGTLINLTNLTHLYLHNNKFTFIPDQSFDQLFQLQEITLYNNRWSCDHKQNITYLLKWMMETKAHVIGTPCSTQISSLKEHNMYPTPSGFTSSLFTVSGMQTVDTINSLSVVTQPKVTKIPKQYRTKETTFGATLSKDTTFTSTDKAFVPYPEDTSTETINSHEAAAATLTIHLQDGMVTNTSLTSSTKSSPTPMTLSITSGMPNNFSEMPQQSTTLNLWREETTTNVKTPLPS
With B1 the “growth cone turning response to a gradient of the protein” value (shortened to “growth cone turning response”) [1] was “significant repulsive turning responses”.

B2: heat-inactivated Omgp: heat-inactivated OMgp (protein, UniProt P23515 25-417, looked up)
Oligodendrocyte-myelin …: ICPLQCICTERHRHVDCSGRNLSTLPSGLQENIIHLNLSYNHFTDLHNQLTQYTNLRTLDISNNRLESLPAHLPRSLWNMSAANNNIKLLDKSDTAYQWNLKYLDVSKNMLEKVVLIKNTLRSLEVLNLSSNKLWTVPTNMPSKLHIVDLSNNSLTQILPGTLINLTNLTHLYLHNNKFTFIPDQSFDQLFQLQEITLYNNRWSCDHKQNITYLLKWMMETKAHVIGTPCSTQISSLKEHNMYPTPSGFTSSLFTVSGMQTVDTINSLSVVTQPKVTKIPKQYRTKETTFGATLSKDTTFTSTDKAFVPYPEDTSTETINSHEAAAATLTIHLQDGMVTNTSLTSSTKSSPTPMTLSITSGMPNNFSEMPQQSTTLNLWREETTTNVKTPLPS
modifications: heat-inactivated
In the case of B2, the “growth cone turning response” value [1] is reported as “not”.

B3: MAG-HI: heat-inactivated MAG (protein, UniProt P20916 20-626, looked up)
Myelin-associated glycoprotein: GHWGAWMPSSISAFEGTCVSIPCRFDFPDELRPAVVHGVWYFNSPYPKNYPPVVFKSRTQVVHESFQGRSRLLGDLGLRNCTLLLSNVSPELGGKYYFRGDLGGYNQYTFSEHSVLDIVNTPNIVVPPEVVAGTEVEVSCMVPDNCPELRPELSWLGHEGLGEPAVLGRLREDEGTWVQVSLLHFVPTREANGHRLGCQASFPNTTLQFEGYASMDVKYPPVIVEMNSSVEAIEGSHVSLLCGADSNPPPLLTWMRDGTVLREAVAESLLLELEEVTPAEDGVYACLAENAYGQDNRTVGLSVMYAPWKPTVNGTMVAVEGETVSILCSTQSNPDPILTIFKEKQILSTVIYESELQLELPAVSPEDDGEYWCVAENQYGQRATAFNLSVEFAPVLLLESHCAAARDTVQCLCVVKSNPEPSVAFELPSRNVTVNESEREFVYSERSGLVLTSILTLRGQAQAPPRVICTARNLYGAKSLELPFQGAHRLMWAKIGPVGAVVAFAILIAIVCYITQTRRKKNVTESPSFSAGDNPPVLFSSDFRISGAPEKYESERRLGSERRLLGLRGEPPELDLSYSHSDLGKRPTKDSYTLTEELAEYAEIRVK
modifications: heat-inactivated
B3 was tested, and the “growth cone turning response” value ([2]; 150 μg/ml in the pipette, 30 min) was “no bias in the direction of axonal extension”.
